Data from patent US20110230659A1, “CYCLOBUTYL PURINE DERIVATIVE, ANGIOGENESIS PROMOTING AGENT, LUMEN FORMATION PROMOTING AGENT, NEUROCYTE GROWTH PROMOTING AGENT, AND DRUG” (NATIONAL UNIVERSITY CORPORATION KAGAWA UNIVERSITY, priority 2008, published 2011).

Legend:
[1] = tested on: MEK; experiment: MEK phosphorylation immunoblot in HUVEC; format: cell-based, human; details: 100 μmol/l; 15 minutes after the addition
Protocol: (§1) First, to a HuMedia-EB2 medium (Kurabo) to which 2 v/v % inactivated fetal bovine serum (FBS) had been added, 2-Cl—C.OXT-A was added so that its concentration became 100 μmol/l. Thus, a medium was prepared. Using the medium, human umbilical vein endothelial cells (HUVEC) were cultured for predetermined periods (0, 10, 20, 30, 45, and 60 minutes).
After the culture, cells were collected. The collected cells were lysed by adding a cell lysis buffer (SDS-lysis buffer) thereto, and heat-denatured at 95° C. for 5 minutes. […]
The enzymes were visualized with SuperSignal (registered trademark) West Pico Chemiluminescent Substrate (Pierce), and detected by being exposed to RX—U X-ray film (FUJIFILM Corporation). From the detected bands, the respective phosphoenzymes and total enzymes were quantified using an NIH image software. Furthermore, the relative value (−fold) of each phosphoenzyme was calculated by substituting the measured value of the phosphoenzyme into the following equation (III). […]
In the present example, the effect of 2-Cl—C.OXT-A used in Example 1 on the phosphorylation of MEK was examined. MEK is a protein kinase involved in the angiogenesis signal transduction pathway and located upstream of ERK measured in Example 3, and acts to promote angiogenesis. […]

[2] = tested on: Akt; experiment: Akt activation (phosphorylation) immunoblot in HUVEC; format: cell-based, human; details: 100 μmol/l; 0 to 60 minutes
Protocol: as §1
After the culture, cells were collected. The collected cells were lysed by adding a cell lysis buffer (SDS-lysis buffer) thereto, and heat-denatured at 95° C. for 5 minutes. The solubilized protein in an amount corresponding to 5 v/v % of the heat-denatured cell lysate was subjected to electrophoresis using 10% SDS-polyacrylamide gel, whereby the solubilized protein was transferred onto a nitrocellulose membrane (Amersham Biosciences). […]
The enzymes were visualized with SuperSignal (registered trademark) West Pico Chemiluminescent Substrate (Pierce), and detected by being exposed to RX—U X-ray film (FUJIFILM Corporation). From the detected bands, the respective phosphoenzymes and total enzymes were quantified using an NIH image software. Furthermore, the relative value (−fold) of each phosphoenzyme was calculated by substituting the measured value of the phosphoenzyme into the following equation (III).

[3] = tested on: Human umbilical vein endothelial cells (HUVEC); experiment: Measurement of cell proliferation (Cell Counting Kit-8); format: cell-based; details: HUVEC, 48 hours
Protocol: Sample solutions were prepared by dissolving 2-Cl—C.OXT-A in physiological saline so as to achieve predetermined concentrations (0.5, 1, 5, 10, 50, 100 mmol/l). Then, the sample solutions containing 2-Cl—C.OXT-A at the predetermined concentrations respectively were added to HuMedia-EB2 media (Kurabo) to which 2 v/v % inactivated fetal bovine serum (FBS) had been added so that their concentrations became 10 v/v %. Thus, cell proliferation media were prepared. The final concentrations of 2-Cl—C.OXT-A in the cell proliferation media were 50, 100, 500 μmol/l, 1, 5, and 10 mmol/1.
Human umbilical vein endothelial cells (HUVEC) suspended in a HuMedia-EG2 medium (Kurabo) were inoculated into each of gelatin-coated wells of a 96-well plate at a density of 3×10^3 cells per well, and cultured for 24 hours. 24 hours after the start of the culture, the medium was removed, and 100 μl of the cell proliferation medium was added to each well. The cells were cultured for another 48 hours. After the completion of the culture, a color reaction was caused using a Cell Counting Kit-8 (Dojindo Laboratories). 2 hours after the start of the reaction, the absorbance at 450 nm was measured using a microplate reader. As a control, a HuMedia-EB2 medium (Kurabo) to which 2 v/v % inactivated fetal bovine serum (FBS) had been added was used instead of the cell proliferation medium to carry out the culture, and a color reaction was caused and the absorbance was measured in the same manner as in the above. Then, using the following equation (I), the relative absorbance in the culture using each of the cell proliferation media containing 2-Cl—C.OXT-A at the predetermined concentrations was calculated.

Nc1nc(Cl)nc2c1ncn2C1CC(CO)C1CO (stereo not drawn) [2-Cl—C.OXT-A, 6-amino-2-chloro-9-[trans-trans-2,3-bis(hydroxymethyl)cyclobutyl]purine]
relative value (−fold) of pMEK [1]: about 3.5 fold | amount of pAkt [2]: not changed | relative absorbance (cell proliferation) ([3]; final concentration 50 μmol/l to 1 mmol/l, relative to control): higher than 1 | cell proliferation ([3]; final concentration 5 mmol/l or higher): suppressed in a concentration-dependent manner
